Source: patent US12411143B2, “CD146 and uses thereof as a biomarker and as a therapeutic target in the diagnosis and treatment of fibrosis” (ASSISTANCE PUBLIQUE HÔPITAUX DE MARSEILLE, priority 2018, dated 2025)
“Also recorded” adds a separate entry of the source.

System: Human cardiac fibroblasts (HCFs)
Experiment: Myofibroblast marker expression in human cardiac fibroblasts (RT-PCR, western blot, immunofluorescence)
Assay type: cell-based
Protocol: Human cardiac fibroblasts (HCFs) (PromoCell) are grown in Fibroblast Growth Medium 3 Supplement Pack (PromoCell) in an environment at 37° C. with controlled atmosphere. The HCFs are grown between passages 3 and 7.
To perform the stimulations, the fibroblasts are seeded at a density of 30 000 cells/cm^2 in complete culture medium. After 24 hours of adhesion, the cell culture medium is replaced with medium not containing growth factor (minimal medium) for 4 hours.
Total mRNA is extracted using a purification kit (RNeasy Mini, Qiagen) then eluted in 30 μL of RNase-free water. The amount of RNA is measured at 260 nm using a spectrophotometer (NanoDrop). The RNA is then converted to cDNA using 200 ng of RNA and according to the same protocol as the tissue RNA. The gene expression study is performed by real-time PCR from 10 ng of cDNA (Table 4).
The cells are lysed at 4° C. in a buffer composed of 10 mMTris-HCl (pH 8), 1 mM EDTA, 150 mMNaCl, 10% NP40, containing a protease inhibitor cocktail (Pierce, Thermo Scientific). The cell lysate obtained is centrifuged at 4° C. and 15000 g for 10 minutes. The supernatant containing solubilized proteins is collected and the amount of proteins determined using a calibration curve of bovine serum albumin (BSA) prepared from a 1 mg/mL BSA solution diluted in the lysis buffer used during sample preparation.
The samples are then used in western blot experiments. To that end, an aliquot containing 30 μg of proteins is taken up in 4× Laemmli buffer containing a reducing agent (Invitrogen) and then heated for 10 minutes at 75° C. before being deposited on an electrophoresis gel (NuPAGE 4-12% Bis-Tris Gel, Invitrogen). After migration of the samples, the proteins are dry-transferred to a nitrocellulose membrane (iBlot 2, Invitrogen). The membrane is blocked for 45 minutes with a Tris buffer containing 0.1% Tween 20 (TBS-T) and 4% BSA. The primary antibody (Table 5) diluted in TBS-T is hybridized for 12 hours at 4° C. and then rinsed for 3×10 minutes with TBS-T. The HRP-coupled secondary antibody (TBS-T) is hybridized for 1 hour. After rinsing, HRP activity is detected using a chemiluminescent substrate (ECL, Pierce). An antibody directed against a normalizing protein (β-tubulin), the expression of which is not modified by the experimental conditions, makes it possible to normalize the quantification and then to express the results semi-quantitatively (% control). Emitted light is captured with a camera (G:BOX). The proteins of interest are visualized as black bands on a white background. The signal thus obtained is quantified by densitometry (Image Lab Software version 4.1) (Table 5).
The cells are fixed for 5 minutes in 70° ethanol at 4° C. and then rinsed with PBS. After 1 hour of blocking in a PBS solution containing 5% BSA, the primary antibody (anti-α-SMA, Dako-0851) diluted 1/50 and then the secondary antibody (anti-mouse antibody) coupled to a fluorescent molecule (Alexa Fluor 488) are incubated for 1.5 hours. Rinses with PBS are performed between each step. The cells are mounted in an aqueous medium containing a nuclear stain (ProLongMountant with DAPI, Invitrogen) before being observed under a fluorescence microscope.
Modulation of α-SMA expression was examined in response to stimulation of HCFs by 50 ng/mL of CD146 for 48 hours.

sCD146: recombinant human soluble form of CD146 corresponding to the shed sCD146, obtained from Biocytex
α-SMA network (indirect immunofluorescence) (50 ng/mL): establishment of a smooth muscle actin network | CD146 expression (50 ng/mL of CD146s, first results n=2): 2 fold | α-SMA protein expression level (western blot) (50 ng/mL, 48 hours): 2.5 fold | α-SMA RNA expression level (overexpression) (50 ng/mL, 48 hours, n=4): 2.5 fold | TGF-β expression at the RNA level (HCFs stimulated by CD146s, preliminary): increase in TGF-β expression; also recorded: able to increase TGF-β expression | expression of RNAs encoding fibronectin and type I collagen (semiquantitative RT-PCR, comparable to TGF-β stimulation): increase in synthesis of fibronectin and of type I collagen
